How the values were obtained:
[1] = tested on: BoNT/A intoxication of mouse ES-MNs (SNAP-25 cleavage); format: cell-based
[2] = tested on: BoNT/E intoxication of human ES-MNs (SNAP-25 cleavage); format: cell-based
BoNT/A LC = BoNT/A LC (Clostridium botulinum, UniProt P0DPI0); experiment: biochemical
[3] = tested on: BoNT/A intoxication of mouse ES-MNs (SNAP-25 cleavage); format: cell-based; remark: listed apart in the source
[4] = tested on: BoNT/A intoxication of human ES-MNs (SNAP-25 cleavage); format: cell-based

BoNT/A LC, sequence (P0DPI0 2-448 limits assumed): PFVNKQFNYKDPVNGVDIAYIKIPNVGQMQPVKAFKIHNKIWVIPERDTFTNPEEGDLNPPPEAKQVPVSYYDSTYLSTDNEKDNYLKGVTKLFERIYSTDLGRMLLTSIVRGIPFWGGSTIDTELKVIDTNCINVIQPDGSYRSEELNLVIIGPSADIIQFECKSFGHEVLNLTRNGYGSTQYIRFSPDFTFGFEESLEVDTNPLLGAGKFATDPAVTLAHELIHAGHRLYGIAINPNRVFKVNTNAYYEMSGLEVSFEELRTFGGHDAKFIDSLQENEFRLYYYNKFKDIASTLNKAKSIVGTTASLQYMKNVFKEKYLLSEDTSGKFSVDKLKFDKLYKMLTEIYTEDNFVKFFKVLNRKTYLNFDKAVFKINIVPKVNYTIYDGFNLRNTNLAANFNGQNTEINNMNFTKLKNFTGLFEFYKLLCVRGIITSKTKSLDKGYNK

SMILES | Protection against BoNT/A (SNAP-25 cleavage), library screen outcome [1] | Protection of SNAP-25 against BoNT/E, 30 min post-intoxication [2] | Protection of SNAP-25 against BoNT/E, 60 min post-intoxication [2] | IC50 (BoNT/A LC) [µM] | Protection of SNAP-25 against BoNT/A, western blot [3] | Antagonism of BoNT/A mediated SNAP-25 cleavage, 60 min post-intoxication [4] | Protection of SNAP-25 against BoNT/A, pre-intoxication, dose dependence [4]
O=C1C(=O)c2ccccc2-c2ccccc21 [9,10-Phenanthrenequinone] | identified as potential BoNT/A intoxication inhibitors | statistically significant protection | statistically significant protection | > 20 | – | – | –
CC1(C)C(=O)N=C2C1=C(O)C(=O)c1ccccc12 [BVT 948] | identified as potential BoNT/A intoxication inhibitors | efficacious | – | > 20 | – | – | –
O=C1C(Cl)=C(NCCN2CCOCC2)C(=O)c2ncccc21 [NSC 663284] | identified as potential BoNT/A intoxication inhibitors | statistically significant protection | statistically significant protection | > 20 | – | – | –
N=C(N)c1ccc(OCCCCCOc2ccc(C(=N)N)cc2)cc1 [Pentamidine] | identified as potential BoNT/A intoxication inhibitors | not statistically significant | not statistically significant | > 20 | qualitatively lower level of SNAP-25 cleavage protection | trended toward, but did not reach, statistical significance | qualitatively lower level of SNAP-25 cleavage protection
CO/C1=C\C(C)=C\[C@@H](C)[C@@H](O)[C@@H](C)C/C(C)=C/C=C/[C@H](OC)[C@@H]([C@@H](C)[C@@H](O)[C@H](C)[C@@]2(O)C[C@@H](O)[C@H](C)[C@@H](C(C)C)O2)OC1=O [bafilomycin] | – | – | – | – | – | – | dose-dependent protection

Reference: paper PMC4462581 (PLoS ONE, 2015)
